Laboratory results from publication PMC10882719 (Frontiers in Neuroscience, 2024).
Read-outs that look alike come from different tables or passages of the source.

What was measured:
5HT2A receptor = target: T1, 5HT2A receptor (Homo sapiens, UniProt P28223); assay: GPCRmax screen, antagonist mode, 5HT2A; assay type: cell-based; conditions: HTR2A
T1 construct: β-galactosidase enzyme fragment (enzyme fragment complementation reporter); host or cells: PathHunter cell lines
Experimental: (§1) Studies were performed at Eurofins DiscoverX Corporation (Fremont, CA) using the GPCRmax assay according to the manufacturer’s protocols. […] Activity greater than 30% typically indicates agonist activity and inhibition greater than 50% indicates antagonist activity. This assay uses enzyme fragment complementation with […] as the functional reporter. When a GPCR is activated, […] is recruited and the reporter is detectable. GPCRmax offers a high-throughput screen of 168 GPCRs for agonist or antagonist activity. Briefly, PathHunter cell lines were propagated, seeded into 384-well microplates and incubated at 37°C. […] Microplates were read following signal generation with a PerkinElmer Envision™ instrument for chemiluminescent signal detection. Compound activity was analyzed using CBIS data analysis suite (ChemInnovation, CA) to determine raw values (RLU). For agonist mode assay, percentage activity was calculated using the following formula: % Activity =100% × (mean RLU of test sample - mean RLU of vehicle control) / (mean MAX control ligand - mean RLU of vehicle control). For antagonist mode assay, percentage inhibition was calculated using the following formula: % Inhibition =100% × (1 - (mean RLU of test sample - mean RLU of vehicle control) / (mean RLU of EC80 control - mean RLU of vehicle control)).

[1] = target: T2, serotonin (5HT) transporter (SERT) (Rattus norvegicus, UniProt P31652); assay: Competitive radioligand binding, [3H]citalopram, rat brain membranes
T2 construct: Rat brains were dissected and tissue was homogenized in cold lysis buffer; from tissue; host or cells: rat brain membrane preparation
T2 sequence (P31652 whole entry): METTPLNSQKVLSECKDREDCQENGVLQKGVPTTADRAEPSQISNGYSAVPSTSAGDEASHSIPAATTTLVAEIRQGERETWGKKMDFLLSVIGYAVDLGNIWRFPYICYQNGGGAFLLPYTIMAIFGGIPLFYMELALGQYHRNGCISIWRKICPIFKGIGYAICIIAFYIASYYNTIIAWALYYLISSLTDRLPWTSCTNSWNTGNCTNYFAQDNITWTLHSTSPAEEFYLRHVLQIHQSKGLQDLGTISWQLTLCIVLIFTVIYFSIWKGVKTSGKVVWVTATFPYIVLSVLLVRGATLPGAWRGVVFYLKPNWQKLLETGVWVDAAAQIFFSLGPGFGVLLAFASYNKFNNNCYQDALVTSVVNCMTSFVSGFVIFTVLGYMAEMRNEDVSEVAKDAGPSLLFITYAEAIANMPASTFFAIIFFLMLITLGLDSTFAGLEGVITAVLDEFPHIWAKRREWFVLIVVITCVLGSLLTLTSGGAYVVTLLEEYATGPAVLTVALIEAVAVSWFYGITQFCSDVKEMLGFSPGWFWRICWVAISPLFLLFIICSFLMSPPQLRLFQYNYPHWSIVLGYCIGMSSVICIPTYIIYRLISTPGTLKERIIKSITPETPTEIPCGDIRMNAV
Experimental: All studies were performed at Gifford Bioscience, Ltd. (Birmingham, UK) according to standard protocols.
Radioligands used were: [^3H] Citalopram (PerkinElmer NET1039250UC); [^3H] Nisoxetine (PerkinElmer NET1084250UC); [^3H] WIN35428 (PerkinElmer NET1033250UC). Nonspecific compounds used were Citalopram (Tocris Bioscience 1,427); JHW007 (Tocris Bioscience 4,351); Nomifensine (Abcam ab146004). […] Rat brains were dissected and tissue was homogenized in cold lysis buffer, centrifuged at 100xg for 2 min and the supernatant was placed in a fresh tube. Supernatant was centrifuged at 13,000 × g for 10 min at 4°C to re-pellet the cell lysate. The pellet was resuspended in fresh wash buffer (50 mM Tris–HCl; 5 mM MgCl2; 5 mM EDTA) and centrifuged a third time. The pellet was then resuspended in wash buffer containing 10% sucrose as a cryoprotectant, divided into aliquots (0.3 mL) and stored at −80°C. A sample of the homogenate was analyzed for protein content using the Sigma® BCA assay. On the day of the assay, the membrane preparation was thawed and the pellet resuspended in final assay buffer. […] Filters were then dried under a warm air stream, sealed in polyethylene, scintillation cocktail added, and the radioactivity counted in a Wallac® TriLux 1,450 MicroBeta counter. […] Ki was subsequently calculated using the Cheng-Prusoff equation.

168 GPCRs [2] = target: T3, 168 GPCRs (Homo sapiens, UniProt P25101); assay type: cell-based; conditions: EDNRA
T3 construct: host or cells: PathHunter cell lines
T3 sequence (P25101 21-427): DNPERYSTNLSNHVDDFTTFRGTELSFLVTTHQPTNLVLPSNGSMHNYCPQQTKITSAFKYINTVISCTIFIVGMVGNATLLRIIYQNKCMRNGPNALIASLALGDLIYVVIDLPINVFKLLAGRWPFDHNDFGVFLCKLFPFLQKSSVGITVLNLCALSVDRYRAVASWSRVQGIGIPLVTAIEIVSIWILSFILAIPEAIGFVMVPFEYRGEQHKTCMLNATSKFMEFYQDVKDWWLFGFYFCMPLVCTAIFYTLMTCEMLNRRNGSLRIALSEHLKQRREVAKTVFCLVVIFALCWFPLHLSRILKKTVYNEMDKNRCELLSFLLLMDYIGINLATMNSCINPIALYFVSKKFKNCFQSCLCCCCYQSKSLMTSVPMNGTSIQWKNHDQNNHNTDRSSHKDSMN

168 GPCRs [3] = target: T4, 168 GPCRs (Homo sapiens, UniProt P43220); assay type: cell-based; conditions: GLP1R
T4 construct: host or cells: PathHunter cell lines
T4 sequence (P43220 24-463): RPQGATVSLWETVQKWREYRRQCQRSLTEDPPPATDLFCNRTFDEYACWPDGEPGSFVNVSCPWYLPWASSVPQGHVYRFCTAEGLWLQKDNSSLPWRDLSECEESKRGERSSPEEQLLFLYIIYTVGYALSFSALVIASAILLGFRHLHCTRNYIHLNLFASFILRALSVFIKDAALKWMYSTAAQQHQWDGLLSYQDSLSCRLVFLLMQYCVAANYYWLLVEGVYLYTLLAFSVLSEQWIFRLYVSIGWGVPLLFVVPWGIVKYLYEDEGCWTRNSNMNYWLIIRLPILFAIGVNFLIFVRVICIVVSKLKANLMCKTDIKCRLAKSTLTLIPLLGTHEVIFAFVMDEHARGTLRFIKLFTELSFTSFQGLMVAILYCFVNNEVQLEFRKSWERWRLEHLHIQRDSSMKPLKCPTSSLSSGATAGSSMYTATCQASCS

168 GPCRs [4] = target: T5, 168 GPCRs (Homo sapiens, UniProt O95136); assay type: cell-based
T5 construct: host or cells: PathHunter cell lines
T5 sequence (O95136 whole entry): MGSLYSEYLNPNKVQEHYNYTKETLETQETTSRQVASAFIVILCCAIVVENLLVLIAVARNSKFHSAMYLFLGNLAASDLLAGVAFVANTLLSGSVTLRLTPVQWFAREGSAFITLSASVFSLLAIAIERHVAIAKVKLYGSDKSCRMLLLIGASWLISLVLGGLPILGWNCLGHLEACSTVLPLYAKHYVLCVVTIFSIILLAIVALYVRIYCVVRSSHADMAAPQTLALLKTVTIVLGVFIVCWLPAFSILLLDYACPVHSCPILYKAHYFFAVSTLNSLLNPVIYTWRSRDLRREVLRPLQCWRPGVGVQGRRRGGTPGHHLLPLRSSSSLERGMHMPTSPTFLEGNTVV

168 GPCRs [5] = target: T6, 168 GPCRs (Homo sapiens, UniProt Q9GZQ6); assay type: cell-based; conditions: NPFFR1
T6 construct: host or cells: PathHunter cell lines
T6 sequence (Q9GZQ6 whole entry): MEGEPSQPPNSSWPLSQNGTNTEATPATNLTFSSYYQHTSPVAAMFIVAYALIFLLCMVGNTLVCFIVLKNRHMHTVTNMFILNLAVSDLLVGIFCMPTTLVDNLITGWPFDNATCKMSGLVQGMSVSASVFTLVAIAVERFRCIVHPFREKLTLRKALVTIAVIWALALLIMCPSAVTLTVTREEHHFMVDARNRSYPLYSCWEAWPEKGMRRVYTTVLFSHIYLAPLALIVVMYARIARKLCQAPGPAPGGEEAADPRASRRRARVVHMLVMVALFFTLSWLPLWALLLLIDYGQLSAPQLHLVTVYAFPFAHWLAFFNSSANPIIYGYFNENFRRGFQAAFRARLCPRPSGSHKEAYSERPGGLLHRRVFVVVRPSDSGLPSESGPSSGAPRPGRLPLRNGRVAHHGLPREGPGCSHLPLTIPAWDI

168 GPCRs [6] = target: T7, 168 GPCRs (Homo sapiens, UniProt P34972); assay type: cell-based
T7 construct: host or cells: PathHunter cell lines
T7 sequence (P34972 whole entry): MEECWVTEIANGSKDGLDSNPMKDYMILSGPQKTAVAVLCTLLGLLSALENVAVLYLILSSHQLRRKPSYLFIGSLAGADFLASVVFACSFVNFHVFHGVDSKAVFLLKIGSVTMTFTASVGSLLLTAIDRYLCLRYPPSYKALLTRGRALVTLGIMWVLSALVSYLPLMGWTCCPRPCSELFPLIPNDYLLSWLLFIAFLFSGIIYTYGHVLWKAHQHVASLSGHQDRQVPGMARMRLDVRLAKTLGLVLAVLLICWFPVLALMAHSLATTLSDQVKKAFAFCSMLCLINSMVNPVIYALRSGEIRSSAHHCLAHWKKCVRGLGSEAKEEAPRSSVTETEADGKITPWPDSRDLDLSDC

5HT2C receptor = target: T8, 5HT2C receptor (Homo sapiens, UniProt P28335); assay: GPCRmax screen, agonist mode, 5HT2C; assay type: cell-based; conditions: for % Agonist Activity: HTR2C
T8 construct: β-galactosidase enzyme fragment (enzyme fragment complementation reporter); host or cells: PathHunter cell lines
T8 sequence (P28335 33-458): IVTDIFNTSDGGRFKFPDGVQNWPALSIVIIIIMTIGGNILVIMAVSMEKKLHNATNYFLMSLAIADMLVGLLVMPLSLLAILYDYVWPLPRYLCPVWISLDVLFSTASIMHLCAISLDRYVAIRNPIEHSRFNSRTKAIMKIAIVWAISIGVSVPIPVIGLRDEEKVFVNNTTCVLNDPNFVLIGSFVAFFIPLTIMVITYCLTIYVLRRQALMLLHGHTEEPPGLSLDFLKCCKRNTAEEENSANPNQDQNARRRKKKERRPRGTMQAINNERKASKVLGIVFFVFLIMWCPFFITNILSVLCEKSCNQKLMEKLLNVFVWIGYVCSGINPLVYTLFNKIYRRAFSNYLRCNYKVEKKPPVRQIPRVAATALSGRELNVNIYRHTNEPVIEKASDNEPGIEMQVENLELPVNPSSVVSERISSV
Experimental: as §1

T1 sequence (P28223 whole entry, the tested form may be a part): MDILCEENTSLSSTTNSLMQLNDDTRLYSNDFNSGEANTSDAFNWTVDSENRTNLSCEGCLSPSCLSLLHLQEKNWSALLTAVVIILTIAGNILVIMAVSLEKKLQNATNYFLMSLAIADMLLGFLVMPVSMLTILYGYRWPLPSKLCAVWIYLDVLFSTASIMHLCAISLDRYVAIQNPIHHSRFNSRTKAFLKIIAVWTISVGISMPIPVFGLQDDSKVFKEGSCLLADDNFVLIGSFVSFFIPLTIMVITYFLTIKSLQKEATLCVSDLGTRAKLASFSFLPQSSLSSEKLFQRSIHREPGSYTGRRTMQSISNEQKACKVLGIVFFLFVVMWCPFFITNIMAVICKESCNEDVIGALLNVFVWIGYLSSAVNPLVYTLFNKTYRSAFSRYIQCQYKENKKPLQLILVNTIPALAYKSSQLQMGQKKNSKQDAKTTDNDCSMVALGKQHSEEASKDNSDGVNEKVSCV

Row | Structure (SMILES) | % Antagonist Activity (5HT2A receptor; 1 uM) [%] | % Antagonist Activity (5HT2A receptor; 10 uM) [%] | % Agonist Activity (168 GPCRs [2]; 1 uM) [%] | % Antagonist Activity (168 GPCRs [2]; 1 uM) [%] | % Agonist Activity (168 GPCRs [2]; 10 uM) [%] | % Antagonist Activity (168 GPCRs [2]; 10 uM) [%] | % Agonist Activity (168 GPCRs [3]; 1 uM) [%] | % Antagonist Activity (168 GPCRs [3]; 1 uM) [%] | % Agonist Activity (168 GPCRs [3]; 10 uM) [%] | % Antagonist Activity (168 GPCRs [3]; 10 uM) [%] | % Agonist Activity (168 GPCRs [4]; EDG5, 1 uM) [%] | % Antagonist Activity (168 GPCRs [4]; EDG5, 1 uM) [%] | % Agonist Activity (168 GPCRs [4]; EDG5, 10 uM) [%] | % Antagonist Activity (168 GPCRs [4]; EDG5, 10 uM) [%] | % Agonist Activity (168 GPCRs [5]; Conc 1 uM) [%] | % Antagonist Activity (168 GPCRs [5]; Conc 1 uM) [%] | % Agonist Activity (168 GPCRs [5]; Conc 10 uM) [%] | % Antagonist Activity (168 GPCRs [5]; Conc 10 uM) [%] | % Agonist Activity (168 GPCRs [6]; CNR2, 1 uM) [%] | % Antagonist Activity (168 GPCRs [6]; CNR2, 1 uM) [%] | further results
1 | CNC(C)C(=O)c1ccc2c(c1)OCO2 (stereo not drawn) [methylone] | -7.9 | -2.7 | 0.3 | -2.4 | 1.4 | -11.3 | -0.3 | 3.4 | -0.1 | -0.9 | -4.7 | -3.4 | -3.7 | -6.3 | -4.6 | 32 | -5.6 | 27.1 | 7 | 3.6 | Ki [1]: 4.15 µM; % Agonist Activity (168 GPCRs [6]; CNR2, 10 uM): 3.2%; % Antagonist Activity (168 GPCRs [6]; CNR2, 10 uM): -3.2%; % Agonist Activity (5HT2C receptor; 1 uM): 1.4%; % Agonist Activity (5HT2C receptor; 10 uM): 3.7%
2 | CNC(C)Cc1ccc2c(c1)OCO2 (stereo not drawn) [MDMA, 3,4-Methylenedioxy methamphetamine, reference compound] | 5.1 | 3 | -1.1 | 2.5 | -1.9 | 4.6 | -0.4 | 9.5 | -0.2 | 12.9 | -1.1 | -0.5 | -1.5 | 0.6 | -3.2 | 17.7 | -5.5 | 20.8 | 0.1 | 8.9 | Ki ([1]; read-out: Ki, SERT, competitive radioligand binding, rat brain membranes, Cheng-Prusoff): 2.62 µM; % Agonist Activity (168 GPCRs [6]; CNR2, 10 uM): -6.8%; % Antagonist Activity (168 GPCRs [6]; CNR2, 10 uM): 7.8%; % agonist activity, 5HT2C (5HT2C receptor; 10 μM, cutoff 30% activity): 28.0%; % Agonist Activity (5HT2C receptor; 1 uM): 15.9%; % Agonist Activity (5HT2C receptor; 10 uM): 28%
